# pIC50: −log10 of the molar value.
# Test system: NCI-H460
# Assay: Anti-tumor activity against human NCI-H460 cells assessed as cell viability incubated for 48 hrs by CCK-8 assay
# Type: functional, cell-based
# Conditions: NCI-H460, 48 h
row,SMILES,pIC50
1,c1ccc([Se]c2c(-c3ccccc3)ncc3ccccc23)cc1,4.21
2,c1ccc([Se]c2c(C3CC3)ncc3ccccc23)cc1,< 4.00
3,c1ccc([Se]c2c(-c3c4ccccc4c(-c4ncc5ccccc5c4[Se]c4ccccc4)c4ccccc34)ncc3ccccc23)cc1,< 4.00
4,Brc1ccc(-c2ncc3ccccc3c2[Se]c2ccccc2)cc1,< 4.00
5,c1ccc([Se]c2c(-c3ccc(-c4ccccc4)cc3)ncc3ccccc23)cc1,< 4.00
6,COc1ccc2c([Se]c3ccccc3)c(-c3ccccc3)ncc2c1,4.12
7,Brc1ccc2c([Se]c3ccccc3)c(-c3ccccc3)ncc2c1,4.06
8,CCCCc1ncc2ccccc2c1[Se]c1ccccc1,< 4.00
9,Fc1cccc([Se]c2c(-c3ccccc3)ncc3ccccc23)c1,< 4.00
10,C[Se]c1c(-c2ccccc2)ncc2ccccc12,< 4.00
11,COc1ccc([Se]c2c(-c3ccc4ccccc4c3)ncc3ccccc23)cc1,< 4.00
12,Cc1ccc([Se]c2c(-c3ccccc3)ncc3ccccc23)cc1,4.28
13,COc1ccc([Se]c2c(-c3ccccc3)ncc3cc4c(cc23)OCO4)cc1,< 4.00
14,Fc1ccc2c([Se]c3ccccc3)c(-c3ccccc3)ncc2c1,< 4.00
15,COc1ccc([Se]c2c(-c3ccccc3)ncc3cc(Br)ccc23)cc1,4.02
16,N#Cc1ccccc1[Se]c1c(-c2ccccc2)ncc2ccccc12,< 4.00
17,c1ccc([Se]c2c(-c3cc4ccccc4c4ccccc34)ncc3ccccc23)cc1,< 4.00
18,Fc1ccccc1[Se]c1c(-c2ccccc2)ncc2ccccc12,< 4.00
19,c1ccc([Se]c2c(-c3ccc(-c4ncc5ccccc5c4[Se]c4ccccc4)cc3)ncc3ccccc23)cc1,< 4.00
20,Clc1ccc(-c2ncc3ccccc3c2[Se]c2ccccc2)cc1,< 4.00
21,c1ccc([Se]c2c(-c3ccsc3)ncc3ccccc23)cc1,< 4.00
22,Fc1ccc(-c2ncc3ccccc3c2[Se]c2ccccc2)cc1,< 4.00

row,SMILES,pIC50
1,FC(F)(F)c1cccc([Se]c2c(-c3ccccc3)ncc3ccccc23)c1,4.33
2,c1ccc([Se]c2c(-c3ccc4ccccc4c3)ncc3ccccc23)cc1,4.26
3,Clc1ccccc1[Se]c1c(-c2ccccc2)ncc2ccccc12,< 4.00
4,O=P1(N(CCCl)CCCl)NCCCO1 (centres undefined) [CYCLOPHOSPHAMIDE ANHYDROUS],3.95
5,FC(F)(F)c1ccc2c([Se]c3ccccc3)c(-c3ccccc3)ncc2c1,4.29
6,CC(C)(C)c1ncc2ccccc2c1[Se]c1ccccc1,< 4.00
7,Brc1ccc([Se]c2c(-c3ccccc3)ncc3ccccc23)cc1,< 4.00
8,Clc1ccc2c([Se]c3ccccc3)c(-c3ccccc3)ncc2c1,4.00
9,c1ccc([Se]c2c(-c3ccccc3)ncc3cc4c(cc23)OCO4)cc1,4.47
10,Clc1cccc([Se]c2c(-c3ccccc3)ncc3ccccc23)c1,4.25
11,Cc1cccc([Se]c2c(-c3ccccc3)ncc3ccccc23)c1,4.42
12,COc1ccc([Se]c2c(-c3ccccc3)ncc3sccc23)cc1,4.47
13,N#Cc1ccc([Se]c2c(-c3ccccc3)ncc3ccccc23)cc1,< 4.00
14,Cc1ccc(-c2ncc3ccccc3c2[Se]c2ccccc2)cc1,< 4.00
15,N#Cc1cccc([Se]c2c(-c3ccccc3)ncc3ccccc23)c1,4.17
16,c1ccc([Se]c2c(-c3ccccc3)ncc3cccnc23)cc1,4.37
17,Fc1ccc([Se]c2c(-c3ccccc3)ncc3ccccc23)cc1,4.69
18,c1ccc([Se]c2c(-c3ccccc3)ncc3sccc23)cc1,4.18
19,COc1ccc([Se]c2c(-c3ccc(Br)cc3)ncc3ccccc23)cc1,< 4.00
20,COc1ccc([Se]c2c(-c3ccccc3)ncc3cccc(F)c23)cc1,4.27
21,COc1cccc([Se]c2c(-c3ccccc3)ncc3ccccc23)c1,4.25
22,Brc1c2ccccc2c(-c2ncc3ccccc3c2[Se]c2ccccc2)c2ccccc12,< 4.00

row,SMILES,pIC50
1,FC(F)(F)c1ccc([Se]c2c(-c3ccccc3)ncc3ccccc23)cc1,4.27
2,CN(C)c1ccc([Se]c2c(-c3ccccc3)ncc3ccccc23)cc1,< 4.00
3,COc1ccc([Se]c2c(-c3ccccc3)ncc3cc(C(F)(F)F)ccc23)cc1,4.37
4,COc1ccc([Se]c2c(-c3ccccc3)ncc3cc(OC)ccc23)cc1,5.07
5,Clc1ccc([Se]c2c(-c3ccccc3)ncc3ccccc23)cc1,4.09
6,Cc1ccc2c([Se]c3ccccc3)c(-c3ccccc3)ncc2c1,< 4.00
7,COc1ccc([Se]c2c(-c3ccccc3)ncc3cc(C)ccc23)cc1,4.78
8,COc1ccc(-c2ncc3ccccc3c2[Se]c2ccccc2)cc1,< 4.00
9,COc1ccc([Se]c2cc(-c3ncc4ccccc4c3[Se]c3ccc(OC)cc3)cc([Se]c3ccc(OC)cc3)c2N)cc1,< 4.00
10,CCCCc1ncc2ccccc2c1[Se]c1ccc(OC)cc1,< 4.00
11,COc1ccc([Se]c2c(-c3ccccc3)ncc3cc(Cl)ccc23)cc1,4.03
12,COc1ccc([Se]c2c(-c3ccc(Cl)cc3)ncc3ccccc23)cc1,4.11
13,COc1ccc([Se]c2c(-c3ccsc3)ncc3ccccc23)cc1,4.35
14,COc1ccccc1[Se]c1c(-c2ccccc2)ncc2ccccc12,4.19
15,CC(C)(C)c1ccc(-c2ncc3ccccc3c2[Se]c2ccccc2)cc1,4.39
16,FC(F)(F)c1ccccc1[Se]c1c(-c2ccccc2)ncc2ccccc12,4.17
17,Cc1ccccc1[Se]c1c(-c2ccccc2)ncc2ccccc12,4.21
18,COc1ccc([Se]c2c(-c3ccccc3)ncc3cc(F)ccc23)cc1,4.41
19,COc1cc2cnc(-c3ccccc3)c([Se]c3ccccc3)c2cc1OC,4.37
20,c1ccc([Se]c2c(-c3ccc(-c4cc(-c5ccc(-c6ncc7ccccc7c6[Se]c6ccccc6)cc5)cc(-c5ccc(-c6ncc7ccccc7c6[Se]c6ccccc6)cc5)c4)cc3)ncc3ccccc23)cc1,< 4.00

# — ChEMBL document CHEMBL6103645, “Modular Synthesis of Bioactive Selenoheterocycles for Efficient Cancer Therapy via Electrochemical Selenylation/Cyclization” (J Med Chem, 2025)
